Experiments:
PDE1 = assay: PDE assay, PDE1 enzyme solution from rat ventricle; format: biochemical, SD rat; details: substrate about 12 nM [3H]-cGMP and 1 μM cGMP
Protocol: Ventricle was excised from SD rat anesthetized with sodium pentobarbital (Nihon SLC, about 300 g), and washed with 100 ml of ice-cold saline 3 times. After the tissues were cut in approximately 1 g, it was frozen by liquid nitrogen, and stored at −80° C.
To about 5 g of this tissue sample was added 16 ml of an ice-cold homogenization buffer I, and the resultant mixture was homogenized by Polytron homogenizer for 3 minutes. The homogenate was centrifuged at 8000 rpm, at 4° C. for 20 minutes, and the obtained supernatant was further centrifuged by an ultracentrifuge at 50000 rpm, at 4° C. for 60 minutes. The resultant supernatant was stored at 4° C. […]
Subsequently, the eluted fractions were used as an enzyme solution for PDE assay. […] (final concentration of 1 mM) or calcium chloride (final concentration of 2 mM) and calmodulin (40 unit s/ml), and cGMP-hydrolyzing activity was measured.
For these PDE1 containing fractions, cGMP hydrolyzing activities were analyzed in the presence of E4021 (100 nM), PDE5 specific inhibitor, it was shown that the cGMP-hydrolyzing activities in these fractions were not inhibited by E4021. […]
Further, in the presence or absence of unlabeled cGMP, cAMP-PDE activities were measured for each of the fractions. […]
Still further, in the presence of rolipram (10 μm), the PDE4 specific inhibitor, cAMP hydrolyzing activities were measured for each of the fractions. […]

PDE7 (PDE7A) = biological target: T1, PDE7 (PDE7A) (Homo sapiens, UniProt Q13946); assay: PDE assay, recombinant human PDE7A; format: biochemical; details: substrate about 4.8 nM [3H]-cAMP and 0.1 μM cAMP
T1 construct: His tag (hexahistidine, pcDNA4/HisMax) (N); made in house
T1 sequence (Q13946 1-456 isoform Q13946-2): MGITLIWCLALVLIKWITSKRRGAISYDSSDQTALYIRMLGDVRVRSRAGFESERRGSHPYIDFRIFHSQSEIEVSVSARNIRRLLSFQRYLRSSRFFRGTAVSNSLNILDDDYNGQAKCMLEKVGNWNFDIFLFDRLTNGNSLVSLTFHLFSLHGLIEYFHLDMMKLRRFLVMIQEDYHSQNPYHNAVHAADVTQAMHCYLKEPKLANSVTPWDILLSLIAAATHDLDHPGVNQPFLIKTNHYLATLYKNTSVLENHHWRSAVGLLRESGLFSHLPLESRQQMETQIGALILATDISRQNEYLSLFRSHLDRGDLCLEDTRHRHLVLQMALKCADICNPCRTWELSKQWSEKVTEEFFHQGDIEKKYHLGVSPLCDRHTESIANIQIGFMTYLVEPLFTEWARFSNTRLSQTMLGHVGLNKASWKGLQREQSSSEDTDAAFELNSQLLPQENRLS
Excerpt: Based on the information of cDNA sequence of human PDE7A (Genbank/EMBL Accession No. NM002603), a cDNA encoding human PDE7A was cloned by PCR method, according to a method described in Sasaki et al. (Sasaki et al., Biochem. Biophys. Res. Commun., vol. 271, pp. 575-583, 2000). Further, based on the information of cDNA sequence of human PDE8A (Genbank/EMBL Accession No. AF388183), a cDNA encoding human PDE8A was cloned by PCR method, according to a method described in Gamanuma et al. (Gamanuma et al., Cell Signal, 2003, vol. 15, pp. 565-574). Further, a cDNA encoding human PDE11A was obtained, according to a method reported in Yuasa et al. (Yuasa et al., J. Biol. Chem., vol. 275, pp. 31469-31479, 2000). Using these cDNAs, recombinant proteins of human PDE7A, human PDE8A, and human PDE11A were prepared as follows.
DNA fragments comprising a cDNA encoding human PDE7A, human PDE8A or human PDE11A were linked to pcDNA4/HisMax (available from Invitrogen), to give a vector plasmid for expression of human proteins, with a histidine tag peptide (hexahistidine), added to the N-terminus. COS-7 cells were transfected with these vector plasmids, and the cells were cultured in Dulbecco's modified Eagle medium containing 10% bovine fetal serum for about 24 hours. […]

Work on `COc1ccc(-c2cc(N3CCCC3)nc(/C=C/c3nc(-n4ccnc4)c4ccccc4n3)n2)cc1OC` [Compound A, 2-{(E)-2-[4-(1-imidazolyl)-quinazolin-2-yl]}ethenyl-4-(3,4-dimethoxy)phenyl-6-(pyrrolidin-1-yl)pyrimidine] yielded an IC50 (PDE1) of over 1 µM and an IC50 (PDE7 (PDE7A)) of over 1 µM.
